From patent US20260055141A1, “COMPOSITIONS AND METHODS FOR CONTROLLING FOOD INTAKE, ENERGY EXPENDITURE, AND BODY WEIGHT FOR THE TREATMENT OF OBESITY AND METABOLIC DISEASES” (The Trustees of the University of Pennsylvania, priority 2022, published 2026)
pKd: −log10 of the molar value. “And” between values parts separate entries of the source, which are not always exact repeats. Equal entries are not always repeated. “Also recorded” adds a separate entry of the source. Non-standard residues stand in square brackets, D forms with d. No end group written: not given here.

Tests used:
[1] = molecular target: T1, human GLP-1R (21-139aa region) (Homo sapiens, UniProt P43220); assay: Surface Plasmon Resonance (SPR) binding at hGLP-1R; settings: for binding at hGLP-1R: Ex-4 positive and ODN negative control
T1 construct: human GLP-1R (21-139aa region); purchased rndsystems.com (R&D Systems) 10956-GL
Procedure: SU75-36, SU75-37, Ex-4, and ODN binding at the human GLP-1R (21-139aa region; available on the world wide web at rndsystems.com cat #10956-GL) was measured via a Nicoya Open SPR instrument using His-tagged hGLP-1R bound to an NTA-coated gold sensor (Nicoya cat #SEN-AU-100-10-NTA) using HBSS (in-house) at 20 μL/min flow rate. Data was fit via a global, one-to-one model using Nicoya OpenSPR software. In-house Ex-4 and ODN were used as the positive and negative controls, respectively.

[2] = Circular dichroism (CD) spectroscopy, secondary structure; settings: 40 μM in 0.5% saline
[3] = molecular target: T2, human GPR75 (372-540 aa region) (Homo sapiens, UniProt O95800); assay: Surface Plasmon Resonance (SPR) binding at GPR75; settings: for Bmax ([Signal (RU)]): SPR fit; for pKd / kd / ka (1/(M*s)): SPR; for kon: read-out: ka (1/(M*s))
T2 construct: human GPR75 (372-540 aa region); purchased antibodies-online.com ABIN5709609
Procedure: SU75-36 binding at the human GPR75 (372-540 aa region; available on the world wide web at antibodies-online.com cat #ABIN5709609) was measured via a Nicoya Open SPR instrument using His-tagged GPR75 bound to an NTA-coated gold sensor (Nicoya cat #SEN-AU-100-10-NTA, range=4.08-204 μM) using HBSS (in-house) at 20 μL/min flow rate. Data was fit via a global, one-to-one model using Nicoya OpenSPR software.

[4] = His-tagged GPR75 on NTA sensor, HBSS, global one-to-one fit

## H[dS]QGTFTSDLSKYLEEEVREFIWLKNGGPSDVNTDRPGLLDLK-NH2 [SU75-36]
[1]
  binding at hGLP-1R: poor binding
[1]; His-tagged hGLP-1R on NTA sensor, HBSS
  pKd: 3.74
[2]
  secondary structure (folded state) from CD spectra: typical α-helix
[3]; curves at 10.2-102 μM peptide
  Bmax ([Signal (RU)]): 69.54 RU
[3]; [4]
  pKd: 5.11
[3]; Nicoya OpenSPR software, one-to-one model, global fit
  pKd: 5.11
[3]; one-to-one model, global fit
  kd: 0.00742 s⁻¹
[3]; one-to-one model, global fit, listed as Drug 36
  ka (1/(M*s)): 956 M⁻¹ s⁻¹
[3]
  kon: 956 M⁻¹ s⁻¹

## TFTSDLSKYLEEEVREFIWLKNGGPSDVNTDRPGLLDLK-NH2 [SU75-37]
[1]
  binding at hGLP-1R: did not bind; also recorded: does not bind
[2]
  secondary structure (folded state) from CD spectra: typical α-helix
[3]; curve at 4.9 μM peptide
  Bmax ([Signal (RU)]): 3.80 RU
[3]; curve at 4.93 μM peptide
  Bmax ([Signal (RU)]): 3.57 RU
[3]; curve at 12.3 μM peptide, listed as Drug37
  Bmax ([Signal (RU)]): 11.98 RU and 9.39 RU
[3]; curve at 24.65 μM peptide
  Bmax ([Signal (RU)]): 8.98 RU
[3]; curve at 49.3 μM peptide, listed as Drug37
  Bmax ([Signal (RU)]): 47.66 RU and 51.69 RU
[3]; curve at 92.4 μM peptide
  Bmax ([Signal (RU)]): 67.67 RU
[3]; curve at 123.23 μM peptide
  Bmax ([Signal (RU)]): 110.32 RU
[3]; [4]
  pKd: 4.62
[3]; one-to-one model, global fit
  ka (1/(M*s)): 592 M⁻¹ s⁻¹
  kd: 0.0141 s⁻¹
[3]
  kon: 592 M⁻¹ s⁻¹
